In patent publication US6737383B1, “Herbicidal oxadiazolidines” (priority 1999, dated 2004):

Tests used:
Alexandergrass = assay: Test D Alexandergrass; type: in vivo, Brachiaria plantaginea; conditions: Postemergence, 0 to 100 scale
bermuda-grass [1] = assay: Test D bermudagrass; type: in vivo, Cynodon dactylon; conditions: Postemergence, 0 to 100 scale
common pursiane = assay: Test D common purslane; type: in vivo, Portulaca oleracea; conditions: Postemergence, 0 to 100 scale
goosegrass = assay: Test D goosegrass; type: in vivo, Eleusine indica; conditions: Postemergence, 0 to 100 scale
itchgrass = assay: Test D itchgrass; type: in vivo, Rottboellia exaltata; conditions: Postemergence, 0 to 100 scale
Johnson grass = assay: Test D Johnson grass; type: in vivo, Sorghum halepense; conditions: Postemergence, 0 to 100 scale
pitted morningglory [2] = assay: Test D pitted morningglory; type: in vivo, Ipomoea lacunosa; conditions: Postemergence, 0 to 100 scale
purple nutsedge [3] = assay: Test D purple nutsedge; type: in vivo, Cyperus rotundus; conditions: Postemergence, 0 to 100 scale
sandbur = assay: Test D sandbur; type: in vivo, Cenchrus echinatus; conditions: Postemergence, 0 to 100 scale
Spanishneedles = assay: Test D Spanishneedles; type: in vivo, Bidens bipinnata; conditions: Postemergence, 0 to 100 scale
surinam grass [4] = assay: Test D surinam grass; type: in vivo, Brachiaria decumbens; conditions: Postemergence, 0 to 100 scale
Green foxtail [5] = assay: Test D green foxtail; type: in vivo; conditions: Rate 250 g/ha; Postemergence; 0 to 100 scale
Green foxtail [6] = assay: Test D green foxtail; type: in vivo; conditions: Postemergence, 0 to 100 scale, 0 no injury, 100 complete control
Green foxtail [7] = assay: Test D green foxtail; type: in vivo; conditions: Postemergence, 0 to 100 scale, 0 no injury, 100 complete control; remark: listed apart in the source
Green foxtail [8] = assay: Test D green foxtail; type: in vivo; conditions: Rate 250 g/ha; Postemergence; 0 to 100 scale; remark: listed apart in the source
Green foxtail [9] = assay: Test D green foxtail; type: in vivo; conditions: Postemergence, 0 to 100 scale, 0 no injury, 100 complete control; remark: listed apart in the source
Green foxtail [10] = assay: Test D green foxtail; type: in vivo; conditions: Postemergence, 0 to 100 scale, 0 no injury, 100 complete control; remark: listed apart in the source
bermuda-grass [11] = assay: Test D bermudagrass; type: in vivo, Cynodon dactylon; conditions: Preemergence, 0 to 100 scale
How it was run: (§1)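 Greenhouse pots, sandy loam, single species per pot. Preemergence tests: soil-surface application ≤1 day after planting. Compound formulated in non-phytotoxic solvent with surfactant. Visual rating 14–21 DAT, scale 0–100.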

common groundsel = assay: Test D common groundsel; type: in vivo, Senecio vulgaris; conditions: Preemergence, 0 to 100 scale
How it was run: as §1

dallisgrass = assay: Test D dallisgrass; type: in vivo, Paspalum dilatatum; conditions: Preemergence, 0 to 100 scale
How it was run: as §1

pitted morningglory [12] = assay: Test D pitted morningglory; type: in vivo, Ipomoea lacunosa; conditions: Preemergence, 0 to 100 scale
How it was run: as §1

purple nutsedge [13] = assay: Test D purple nutsedge; type: in vivo, Cyperus rotundus; conditions: Preemergence, 0 to 100 scale
How it was run: as §1

surinam grass [14] = assay: Test D surinam grass; type: in vivo, Brachiaria decumbens; conditions: Preemergence, 0 to 100 scale
How it was run: as §1

barnyardgrass = assay: Test A barnyardgrass; type: in vivo, Echinochloa crus-galli; conditions: 0 to 10 scale where 0 is no effect and 10 is complete control
How it was run: (§2)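 Visual injury score, 0 (no effect) to 10 (complete control), vs untreated controls at ~11 d in greenhouse. Pre: soil drench on sandy loam. Post: spray to runoff, 1–2 leaf stage.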

crabgrass = assay: Test A crabgrass; type: in vivo, Digitaria spp.; conditions: 0 to 10 scale where 0 is no effect and 10 is complete control
How it was run: as §2

[15] = Rate 16 g/ha, 0 no injury, 100 complete control
[16] = Rate 32 g/ha, 0 no injury, 100 complete control
[17] = Rate 64 g/ha, 0 no injury, 100 complete control
[18] = Rate 125 g/ha, 0 no injury, 100 complete control

CCC(CC)n1c(=O)on(C(=O)N(c2ccc(F)cc2)C(C)C)c1=O [Compound 358]
Plant response rating, Alexandergrass (Alexandergrass; [15]): 0
Plant response rating, Alexandergrass (Alexandergrass; [16]): 0
Plant response rating, Alexandergrass (Alexandergrass; [17]): 100
Plant response rating, Alexandergrass (Alexandergrass; [18]): 90
Plant response rating, Alexandergrass (Alexandergrass; Rate 250 g/ha): 100
Plant response rating, Bermudagrass (bermuda-grass [1]; [15]): 0
Plant response rating, Bermudagrass (bermuda-grass [1]; [16]): 90
Plant response rating, Bermudagrass (bermuda-grass [1]; [17]): 100
Plant response rating, Bermudagrass (bermuda-grass [1]; [18]): 100
Plant response rating, Bermudagrass (bermuda-grass [1]; Rate 250 g/ha): 100
Plant response rating, C. purslane (common pursiane; [15]): 0
Plant response rating, C. purslane (common pursiane; [16]): 0
Plant response rating, C. purslane (common pursiane; [17]): 0
Plant response rating, C. purslane (common pursiane; [18]): 0
Plant response rating, C. purslane (common pursiane; Rate 250 g/ha): 0
Plant response rating, Goosegrass (goosegrass; [15]): 0
Plant response rating, Goosegrass (goosegrass; [16]): 20
Plant response rating, Goosegrass (goosegrass; [17]): 100
Plant response rating, Goosegrass (goosegrass; [18]): 100
Plant response rating, Goosegrass (goosegrass; Rate 250 g/ha): 100
Plant response rating, Itchgrass (itchgrass; [15]): 0
Plant response rating, Itchgrass (itchgrass; [16]): 0
Plant response rating, Itchgrass (itchgrass; [17]): 0
Plant response rating, Itchgrass (itchgrass; [18]): 0
Plant response rating, Itchgrass (itchgrass; Rate 250 g/ha): 100
Plant response rating, Johnsongrass (Johnson grass; [15]): 0
Plant response rating, Johnsongrass (Johnson grass; [16]): 0
Plant response rating, Johnsongrass (Johnson grass; [17]): 0
Plant response rating, Johnsongrass (Johnson grass; [18]): 0
Plant response rating, Johnsongrass (Johnson grass; Rate 250 g/ha): 100
Plant response rating, P. morninglory (pitted morningglory [2]; [15]): 0
Plant response rating, P. morninglory (pitted morningglory [2]; [16]): 0
Plant response rating, P. morninglory (pitted morningglory [2]; [17]): 0
Plant response rating, P. morninglory (pitted morningglory [2]; [18]): 0
Plant response rating, P. morninglory (pitted morningglory [2]; Rate 250 g/ha): 0
Plant response rating, Purple nutsedge (purple nutsedge [3]; [15]): 0
Plant response rating, Purple nutsedge (purple nutsedge [3]; [16]): 0
Purple nutsedge plant response rating (purple nutsedge [3]; [17]): 0
Purple nutsedge plant response rating (purple nutsedge [3]; [18]): 0
Plant response rating, Purple nutsedge (purple nutsedge [3]; Rate 250 g/ha): 10
Plant response rating, Sandbur (sandbur; [15]): 0
Plant response rating, Sandbur (sandbur; [16]): 20
Sandbur plant response rating (sandbur; [17]): 100
Sandbur plant response rating (sandbur; [18]): 100
Plant response rating, Sandbur (sandbur; Rate 250 g/ha): 90
Plant response rating, Spanishneedles (Spanishneedles; [15]): 0
Plant response rating, Spanishneedles (Spanishneedles; [16]): 0
Spanishneedles plant response rating (Spanishneedles; [17]): 0
Spanishneedles plant response rating (Spanishneedles; [18]): 0
Plant response rating, Spanishneedles (Spanishneedles; Rate 250 g/ha): 0
Plant response rating, Surinam grass (surinam grass [4]; [15]): 0
Plant response rating, Surinam grass (surinam grass [4]; [16]): 0
Surinam grass plant response rating (surinam grass [4]; [17]): 0
Surinam grass plant response rating (surinam grass [4]; [18]): 50
Plant response rating, Surinam grass (surinam grass [4]; Rate 250 g/ha): 50
Plant response rating, Green foxtail (Green foxtail [5]): 100
Plant response rating, Green foxtail (Green foxtail [6]; Rate 64 g/ha): 100
Plant response rating, Green foxtail (Green foxtail [6]; Rate 125 g/ha): 100
Plant response rating, Green foxtail (Green foxtail [7]; Rate 16 g/ha): 0
Plant response rating, Green foxtail (Green foxtail [7]; Rate 32 g/ha): 30
Plant response rating, Green foxtail (Green foxtail [8]): 100
Green foxtail plant response rating (Green foxtail [9]; Rate 64 g/ha): 100
Green foxtail plant response rating (Green foxtail [9]; Rate 125 g/ha): 100
Plant response rating, Green foxtail (Green foxtail [10]; Rate 16 g/ha): 0
Plant response rating, Green foxtail (Green foxtail [10]; Rate 32 g/ha): 30

Cc1ccc(-n2c(=O)on(C(=O)N(c3ccc(F)cc3F)C(C)C)c2=O)c(C)c1 [Compound 24]
Plant response rating, Bermudagrass (bermuda-grass [11]; [16]): 75
Plant response rating, Bermudagrass (bermuda-grass [11]; [17]): 95
Plant response rating, Bermudagrass (bermuda-grass [11]; [18]): 98
Plant response rating, Bermudagrass (bermuda-grass [11]; Rate 250 g/ha): 100
Plant response rating, Bermudagrass (bermuda-grass [11]; Rate 500 g/ha): 100
Plant response rating, Com. groundsel (common groundsel; [16]): 0
Plant response rating, Com. groundsel (common groundsel; [17]): 0
Plant response rating, Com. groundsel (common groundsel; [18]): 0
Plant response rating, Com. groundsel (common groundsel; Rate 250 g/ha): 0
Plant response rating, Com. groundsel (common groundsel; Rate 500 g/ha): 0
Plant response rating, Dallisgrass (dallisgrass; [16]): 30
Plant response rating, Dallisgrass (dallisgrass; [17]): 30
Plant response rating, Dallisgrass (dallisgrass; [18]): 98
Plant response rating, Dallisgrass (dallisgrass; Rate 250 g/ha): 98
Plant response rating, Dallisgrass (dallisgrass; Rate 500 g/ha): 100
Plant response rating, P. morninglory (pitted morningglory [12]; [16]): 0
Plant response rating, P. morninglory (pitted morningglory [12]; [17]): 0
Plant response rating, P. morninglory (pitted morningglory [12]; [18]): 0
Plant response rating, P. morninglory (pitted morningglory [12]; Rate 250 g/ha): 0
Plant response rating, P. morninglory (pitted morningglory [12]; Rate 500 g/ha): 0
Plant response rating, Purple nutsedge (purple nutsedge [13]; [16]): 0
Purple nutsedge plant response rating (purple nutsedge [13]; [17]): 0
Purple nutsedge plant response rating (purple nutsedge [13]; [18]): 0
Plant response rating, Purple nutsedge (purple nutsedge [13]; Rate 250 g/ha): 0
Plant response rating, Purple nutsedge (purple nutsedge [13]; Rate 500 g/ha): 0
Plant response rating, Surinam grass (surinam grass [14]; [16]): 10
Surinam grass plant response rating (surinam grass [14]; [17]): 10
Surinam grass plant response rating (surinam grass [14]; [18]): 10
Plant response rating, Surinam grass (surinam grass [14]; Rate 250 g/ha): 10
Plant response rating, Surinam grass (surinam grass [14]; Rate 500 g/ha): 65

CCN(CC)C(=O)n1oc(=O)n(-c2ccc(F)cc2)c1=O [Compound 3]
Plant response rating, Barnyardgrass (barnyardgrass; Postemergence, Rate 1000 g/ha): 6
Plant response rating, Barnyardgrass (barnyardgrass; Pre-emergence, Rate 2000 g/ha): 9
Plant response rating, Crabgrass (crabgrass; Postemergence, Rate 1000 g/ha): 0
Plant response rating, Crabgrass (crabgrass; Pre-emergence, Rate 2000 g/ha): 3

C=CCn1c(=O)on(C(=O)N(c2ccc(F)cc2F)C2CC2)c1=O [Compound 127]
Plant response rating, Barnyardgrass (barnyardgrass; Postemergence, Rate 1000 g/ha): 6
Plant response rating, Barnyardgrass (barnyardgrass; Pre-emergence, Rate 2000 g/ha): 9
Plant response rating, Crabgrass (crabgrass; Postemergence, Rate 1000 g/ha): 7
Plant response rating, Crabgrass (crabgrass; Pre-emergence, Rate 2000 g/ha): 8

CC(C)N(C(=O)n1oc(=O)n(C(C)C)c1=O)c1ccccc1 [Compound 113]
Plant response rating, Bermudagrass (bermuda-grass [11]; [15]): 98
Plant response rating, Bermudagrass (bermuda-grass [11]; [16]): 100
Plant response rating, Bermudagrass (bermuda-grass [11]; [17]): 100
Plant response rating, Bermudagrass (bermuda-grass [11]; [18]): 100
Plant response rating, Com. groundsel (common groundsel; [15]): 0
Plant response rating, Com. groundsel (common groundsel; [16]): 65
Plant response rating, Com. groundsel (common groundsel; [17]): 100
Plant response rating, Com. groundsel (common groundsel; [18]): 100
Plant response rating, Dallisgrass (dallisgrass; [15]): 0
Plant response rating, Dallisgrass (dallisgrass; [16]): 95
Plant response rating, Dallisgrass (dallisgrass; [17]): 100
Plant response rating, Dallisgrass (dallisgrass; [18]): 100
Plant response rating, P. morninglory (pitted morningglory [12]; [15]): 10
Plant response rating, P. morninglory (pitted morningglory [12]; [16]): 10
Plant response rating, P. morninglory (pitted morningglory [12]; [17]): 10
Plant response rating, P. morninglory (pitted morningglory [12]; [18]): 10
Plant response rating, Purple nutsedge (purple nutsedge [13]; [15]): 0
Plant response rating, Purple nutsedge (purple nutsedge [13]; [16]): 0
Purple nutsedge plant response rating (purple nutsedge [13]; [17]): 20
Purple nutsedge plant response rating (purple nutsedge [13]; [18]): 30
Plant response rating, Surinam grass (surinam grass [14]; [15]): 85
Plant response rating, Surinam grass (surinam grass [14]; [16]): 90
Surinam grass plant response rating (surinam grass [14]; [17]): 98
Surinam grass plant response rating (surinam grass [14]; [18]): 100
